# Reference: patent publication US12077503B2, “Substituted cyclic amides and their use as herbicides” (FMC CORPORATION, priority 2015, dated 2024)
# Experiments:
# Format in all cases: in vivo
# [1] = tested on: Kochia (Kochia scoparia); experiment: Test A preemergence; conditions: Bassia scoparia, pre-emergence, 240 h, 0 to 100 scale where 0 is no effect and 100 is complete control, read-out: Kochia plant response rating; for pest or weed control at 31 g/ha: 31 g ai/ha, Preemergence; for pest or weed control at 125 g/ha: 125 g ai/ha, preemergence, approx. 10 d
# Outline: (§1)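 Preemergence directed soil spray on seeded pots, or postemergence application to plants 2–10 cm, one- to two-leaf. Solvent mixture non-phytotoxic, with surfactant. Scored ~10 d later, visually, 0–100 vs untreated.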
# [2] = tested on: barnyardgrass (Echinochloa crus-galli); experiment: Test A preemergence; conditions: Echinochloa crus-galli, pre-emergence, 240 h, 0 to 100 scale where 0 is no effect and 100 is complete control, read-out: Barnyardgrass plant response rating; for pest or weed control at 31 g/ha: 31 g ai/ha, Preemergence; for pest or weed control at 125 g/ha: 125 g ai/ha, preemergence, approx. 10 d
# Outline: as §1
# [3] = tested on: giant foxtail (Setaria faberii); experiment: Test A preemergence; conditions: Setaria faberi, pre-emergence, 240 h, 0 to 100 scale where 0 is no effect and 100 is complete control, read-out: Foxtail, Giant plant response rating; for pest or weed control at 31 g/ha: 31 g ai/ha, Preemergence; for pest or weed control at 125 g/ha: 125 g ai/ha, preemergence, approx. 10 d
# Outline: as §1
# [4] = tested on: pigweed (Amaranthus retroflexus); experiment: Test A preemergence; conditions: Amaranthus retroflexus, pre-emergence, 240 h, 0 to 100 scale where 0 is no effect and 100 is complete control, read-out: Pigweed plant response rating; for pest or weed control at 31 g/ha: 31 g ai/ha, Preemergence; for pest or weed control at 125 g/ha: 125 g ai/ha, preemergence, approx. 10 d
# [5] = tested on: ragweed (common ragweed, Ambrosia elatior); experiment: Test A preemergence; conditions: Ambrosia artemisiifolia, pre-emergence, 240 h, 0 to 100 scale where 0 is no effect and 100 is complete control, read-out: Ragweed plant response rating; for pest or weed control at 31 g/ha: 31 g ai/ha, Preemergence; for pest or weed control at 125 g/ha: 125 g ai/ha, preemergence, approx. 10 d
# Outline: as §1
# [6] = tested on: ryegrass, Italian (Italian ryegrass, Lolium multiflorum); experiment: Test A preemergence; conditions: Lolium multiflorum, pre-emergence, 240 h, 0 to 100 scale where 0 is no effect and 100 is complete control, read-out: Ryegrass, Italian plant response rating; for pest or weed control at 31 g/ha: 31 g ai/ha, Preemergence; for pest or weed control at 125 g/ha: 125 g ai/ha, preemergence, approx. 10 d
# Outline: as §1
# [7] = tested on: Kochia (Kochia scoparia); experiment: Test A postemergence; conditions: Bassia scoparia, post-emergence, 240 h; for pest or weed control at 125 g/ha: 125 g ai/ha, postemergence, visual injury on 0 to 100 scale (0 no effect, 100 complete control), approx. 10 d, read-out: Kochia plant response rating; for pest or weed control at 31 g/ha: Postemergence, 31 g ai/ha, visual injury after approx. 10 d, 0 to 100 scale, 0 no effect, 100 complete control, read-out: Plant response rating, Kochia
# Outline: as §1
# [8] = tested on: barnyardgrass (Echinochloa crus-galli); experiment: Test A postemergence; conditions: Echinochloa crus-galli, post-emergence, 240 h; for pest or weed control at 125 g/ha: 125 g ai/ha, postemergence, visual injury on 0 to 100 scale (0 no effect, 100 complete control), approx. 10 d, read-out: Barnyardgrass plant response rating; for pest or weed control at 31 g/ha: Postemergence, 31 g ai/ha, visual injury after approx. 10 d, 0 to 100 scale, 0 no effect, 100 complete control, read-out: Plant response rating, Barnyardgrass
# Outline: as §1
# [9] = tested on: blackgrass (Alopecurus myosuroides); experiment: Test A postemergence; conditions: Alopecurus myosuroides, post-emergence, 240 h; for pest or weed control at 125 g/ha: 125 g ai/ha, postemergence, visual injury on 0 to 100 scale (0 no effect, 100 complete control), approx. 10 d, read-out: Blackgrass plant response rating; for pest or weed control at 31 g/ha: Postemergence, 31 g ai/ha, visual injury after approx. 10 d, 0 to 100 scale, 0 no effect, 100 complete control, read-out: Plant response rating, Blackgrass
# Outline: as §1
# [10] = tested on: corn (Zea mays); experiment: Test A postemergence; conditions: Zea mays, post-emergence, 240 h; for plant injury at 125 g/ha: 125 g ai/ha, postemergence, visual injury on 0 to 100 scale (0 no effect, 100 complete control), approx. 10 d, read-out: Corn plant response rating; for Corn plant response rating (crop injury, 0 = no effect, 100 = complete kill) at 31 g/ha: Postemergence, 31 g ai/ha, visual injury after approx. 10 d, 0 to 100 scale, 100 complete control
# Outline: as §1
# [11] = tested on: giant foxtail (Setaria faberii); experiment: Test A postemergence; conditions: Setaria faberi, post-emergence, 240 h; for pest or weed control at 125 g/ha: 125 g ai/ha, postemergence, visual injury on 0 to 100 scale (0 no effect, 100 complete control), approx. 10 d, read-out: Foxtail, Giant plant response rating; for pest or weed control at 31 g/ha: Postemergence, 31 g ai/ha, visual injury after approx. 10 d, 0 to 100 scale, 0 no effect, 100 complete control, read-out: Plant response rating, Foxtail, Giant
# Outline: as §1
# [12] = tested on: pigweed (Amaranthus retroflexus); experiment: Test A postemergence; conditions: Amaranthus retroflexus, post-emergence, 240 h; for pest or weed control at 125 g/ha: 125 g ai/ha, postemergence, visual injury on 0 to 100 scale (0 no effect, 100 complete control), approx. 10 d, read-out: Pigweed plant response rating; for pest or weed control at 31 g/ha: Postemergence, 31 g ai/ha, visual injury after approx. 10 d, 0 to 100 scale, 0 no effect, 100 complete control, read-out: Plant response rating, Pigweed
# Outline: as §1
# [13] = tested on: ragweed (common ragweed, Ambrosia elatior); experiment: Test A postemergence; conditions: Ambrosia artemisiifolia, post-emergence, 240 h; for pest or weed control at 125 g/ha: 125 g ai/ha, postemergence, visual injury on 0 to 100 scale (0 no effect, 100 complete control), approx. 10 d, read-out: Ragweed plant response rating; for pest or weed control at 31 g/ha: Postemergence, 31 g ai/ha, visual injury after approx. 10 d, 0 to 100 scale, 0 no effect, 100 complete control, read-out: Plant response rating, Ragweed
# Outline: as §1
# [14] = tested on: ryegrass, Italian (Italian ryegrass, Lolium multiflorum); experiment: Test A postemergence; conditions: Lolium multiflorum, post-emergence, 240 h; for pest or weed control at 125 g/ha: 125 g ai/ha, postemergence, visual injury on 0 to 100 scale (0 no effect, 100 complete control), approx. 10 d, read-out: Ryegrass, Italian plant response rating; for pest or weed control at 31 g/ha: Postemergence, 31 g ai/ha, visual injury after approx. 10 d, 0 to 100 scale, 0 no effect, 100 complete control, read-out: Plant response rating, Ryegrass, Italian
# Outline: as §1
# [15] = tested on: wheat (Triticum aestivum); experiment: Test A postemergence; conditions: Triticum aestivum, post-emergence, 240 h; for plant injury at 125 g/ha: 125 g ai/ha, postemergence, visual injury on 0 to 100 scale (0 no effect, 100 complete control), approx. 10 d, read-out: Wheat plant response rating; for plant injury at 31 g/ha: Postemergence, 31 g ai/ha, visual injury after approx. 10 d, 0 to 100 scale, 0 no effect, 100 complete control, read-out: Plant response rating, Wheat
# Outline: as §1
# [16] = tested on: barnyardgrass (Echinochloa crus-galli); experiment: Test B flooded paddy test; conditions: Echinochloa crus-galli, 250 g ai/ha, Flood; 0 to 100 scale where 0 is no effect and 100 is complete control; read-out: Barnyardgrass plant response rating
# Outline: (§2)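 Greenhouse paddy pots with 2-leaf stage plants received compound by direct addition to floodwater 3 cm deep, kept at that level. Scored visually at 13–15 d versus controls (0 no effect; 100 complete control).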
# [17] = tested on: ducksalad (Heteranthera limosa); experiment: Test B flooded paddy test; conditions: Heteranthera limosa, 250 g ai/ha, Flood; 0 to 100 scale where 0 is no effect and 100 is complete control; read-out: Ducksalad plant response rating
# Outline: as §2
# [18] = tested on: rice (Oryra sativa); experiment: Test B flooded paddy test; conditions: Oryza sativa, 250 g ai/ha, Flood; 0 to 100 scale where 0 is no effect and 100 is complete control; read-out: Rice plant response rating
# Outline: as §2
# [19] = tested on: sedge, umbrella (small-flower umbrella sedge, Cyperus difformis); experiment: Test B flooded paddy test; conditions: Cyperus difformis, 250 g ai/ha, Flood; 0 to 100 scale where 0 is no effect and 100 is complete control; read-out: Sedge, Umbrella plant response rating
# Outline: as §2
structure (smiles),measurement,setting,value
CN1C[C@H](c2cc(C(F)F)cs2)[C@@H](C(=O)Nc2cccc(F)c2C#N)C1=O [Compound 1092],pest or weed control at 31 g/ha,[1],70%
same,pest or weed control at 125 g/ha,[1],0%
same,pest or weed control at 31 g/ha,[2],40%
same,pest or weed control at 125 g/ha,[2],90%
same,pest or weed control at 31 g/ha,[3],90%
same,pest or weed control at 125 g/ha,[3],100%
same,pest or weed control at 31 g/ha,[4],0%
same,pest or weed control at 125 g/ha,[4],0%
same,pest or weed control at 31 g/ha,[5],0%
same,pest or weed control at 125 g/ha,[5],40%
same,pest or weed control at 31 g/ha,[6],0%
same,pest or weed control at 125 g/ha,[6],0%
same,pest or weed control at 125 g/ha,[7],20%
same,pest or weed control at 31 g/ha,[7],0%
same,pest or weed control at 125 g/ha,[8],90%
same,pest or weed control at 31 g/ha,[8],50%
same,pest or weed control at 125 g/ha,[9],20%
same,pest or weed control at 31 g/ha,[9],0%
same,plant injury at 125 g/ha,[10],0%
same,"Corn plant response rating (crop injury, 0 = no effect, 100 = complete kill) at 31 g/ha",[10],0%
same,pest or weed control at 125 g/ha,[11],90%
same,pest or weed control at 31 g/ha,[11],30%
same,pest or weed control at 125 g/ha,[12],20%
same,pest or weed control at 31 g/ha,[12],0%
same,pest or weed control at 125 g/ha,[13],50%
same,pest or weed control at 31 g/ha,[13],0%
same,pest or weed control at 125 g/ha,[14],0%
same,pest or weed control at 31 g/ha,[14],0%
same,plant injury at 125 g/ha,[15],0%
same,plant injury at 31 g/ha,[15],0%
same,pest or weed control at 250 g/ha,[16],60%
same,pest or weed control at 250 g/ha,[17],85%
same,pest or weed control at 250 g/ha,[18],0%
same,pest or weed control at 250 g/ha,[19],0%
CN1C[C@H](c2cc(C(F)F)cs2)[C@@H](C(=O)Nc2cccc(C#N)c2F)C1=O [Compound 1093],pest or weed control at 31 g/ha,[1],0%
same,pest or weed control at 125 g/ha,[1],50%
same,pest or weed control at 31 g/ha,[2],40%
same,pest or weed control at 125 g/ha,[2],90%
same,pest or weed control at 31 g/ha,[3],100%
same,pest or weed control at 125 g/ha,[3],100%
same,pest or weed control at 31 g/ha,[4],0%
same,pest or weed control at 125 g/ha,[4],80%
same,pest or weed control at 31 g/ha,[5],0%
same,pest or weed control at 125 g/ha,[5],20%
same,pest or weed control at 31 g/ha,[6],0%
same,pest or weed control at 125 g/ha,[6],0%
same,pest or weed control at 125 g/ha,[7],20%
same,pest or weed control at 31 g/ha,[7],0%
same,pest or weed control at 125 g/ha,[8],80%
same,pest or weed control at 31 g/ha,[8],40%
same,pest or weed control at 125 g/ha,[9],0%
same,pest or weed control at 31 g/ha,[9],0%
same,plant injury at 125 g/ha,[10],0%
same,"Corn plant response rating (crop injury, 0 = no effect, 100 = complete kill) at 31 g/ha",[10],0%
same,pest or weed control at 125 g/ha,[11],90%
same,pest or weed control at 31 g/ha,[11],30%
same,pest or weed control at 125 g/ha,[12],20%
same,pest or weed control at 31 g/ha,[12],0%
same,pest or weed control at 125 g/ha,[13],30%
same,pest or weed control at 31 g/ha,[13],0%
same,pest or weed control at 125 g/ha,[14],0%
same,pest or weed control at 31 g/ha,[14],0%
same,plant injury at 125 g/ha,[15],0%
same,plant injury at 31 g/ha,[15],0%
same,pest or weed control at 250 g/ha,[16],60%
same,pest or weed control at 250 g/ha,[17],80%
same,pest or weed control at 250 g/ha,[18],0%
same,pest or weed control at 250 g/ha,[19],0%
